Results on eight molecules are retold here after patent US20080221218A1, “Receptor” (The University of York, priority 2005, published 2008).

For data set [1] the following is noted: literature (Bertsch et al.); cited from earlier work.
Data set [2] can be described thus: Potentiometric titrations: protonation constants. In kind it is physicochemical. The following applies: potentiometry, 0.1 M KCl, 25° C.; for Protonation constant (log K) 2H+ + L ⇄ H2L2+ / Protonation constant (log K) 3H+ + L ⇄ H3L3+ / Protonation constant (log K) 4H+ + L ⇄ H4L4+: cumulative; for Protonation constant (log K) H+ + H2L2+ ⇄ H3L3+ / Protonation constant (log K) H+ + H3L3+ ⇄ H4L4+ / Protonation constant (log K) H+ + HL+ ⇄ H2L2+: stepwise. Here is the method: (§1) Potentiometric measurements were conducted using a Metrohm 792SM Titrino automated burette fitted with a combined glass electrode and an in-house designed jacketed glass cell thermostated at 25° C. suitable for small sample volumes (5 mL). The cell was sealed under an inert atmosphere. All solutions were made up using ultrapure CO2-free water from a Millipore Simplicity 185 system. The sample solutions contained 0.1 M KCl as a background electrolyte. The titrant base was made up from commercial (Riedel-de Haën) CO2-free concentrates of KOH, diluted to the required concentration (0.020 M) with a 0.080 M KCl solution to avoid problems of different ionic strengths. The glass electrode was calibrated by titrating well-known amounts of HCl (made up from Riedel-de Haën concentrates) with the base and determining the equivalence point using Gran's method (G. Gran, Analyst, 1952, 77, 661-671) yielding the ionic product of water (pKw=13.78), which was used as a constant in the subsequent analyses.
(§2) Sample concentrations were typically 1.0-5.0×10^−3 M. A known excess of HCl was added to ensure full protonation of the receptor. The degree of protonation of our receptors was calculated from the onset of titration curve. […] A minimum of 250 points in the pH-range of 2.5-11.0 was taken for every titration, with at least 30 seconds between each addition to ensure equilibration. The computer program […]^I was used to determine the protonation and stability constants. For each system a minimum of three titrations were first treated as individual sets and then merged and fitted simultaneously to give the final constants.
To study the binding in more detail we used potentiometry. To enable this, we first investigated the protonation constants of the receptors and the data is collected in Table 1. We calibrated our system with spermine (compound 4) and the data for this compound are also included in this table and were in accordance with literature values (Bazzicalupi et al, J. Am. Chem. Soc. 121: 6807-6815 (1999); De Stefano et al., J. Chem. Soc. Faraday Trans, 94:1091-1095 (1998); Bergeron et al., J. Med. Chem. 38:2278-2285 (1995)).

A short description of data set [3]: Potentiometric titrations: binding of inorganic phosphate (equimolar KH2PO4 and receptor). The following applies: for Binding constant (Log K) H3L3+ + HA2− ⇄ H4LA+ / Binding constant (Log K) H4L4+ + HA2− ⇄ H5LA2+ / Protonation and binding constant (Log K) 4H+ + L + A3− ⇄ H4LA+ / Protonation and binding constant (Log K) 5H+ + L + A3− ⇄ H5LA2+ / Binding constant (Log K) H2L2+ + HA2− ⇄ H3LA / Binding constant (Log K) H4L4+ + H2A− ⇄ H6LA3+ / Protonation and binding constant (Log K) 3H+ + L + A3− ⇄ H3LA / Protonation and binding constant (Log K) 6H+ + L + A3− ⇄ H6LA3+: A = phosphate, 0.1 M KCl, 25° C.; for Binding constant (Log K) H3L3+ + HA2− ⇄ H4LA+ / Binding constant (Log K) H4L4+ + HA2− ⇄ H5LA2+ / Protonation and binding constant (Log K) 4H+ + L + A3− ⇄ H4LA+ / Protonation and binding constant (Log K) 5H+ + L + A3− ⇄ H5LA2+ / affinity towards inorganic phosphate (log K), range over protonation states / Binding constant (Log K) H2L2+ + HA2− ⇄ H3LA / Binding constant (Log K) H4L4+ + H2A− ⇄ H6LA3+ / Protonation and binding constant (Log K) 3H+ + L + A3− ⇄ H3LA / Protonation and binding constant (Log K) 6H+ + L + A3− ⇄ H6LA3+: potentiometry; for Protonation and binding constant (Log K) 4H+ + L + A3− ⇄ H4LA+ / Protonation and binding constant (Log K) 5H+ + L + A3− ⇄ H5LA2+ / Protonation and binding constant (Log K) 3H+ + L + A3− ⇄ H3LA / Protonation and binding constant (Log K) 6H+ + L + A3− ⇄ H6LA3+: overall constant; for phosphate in solution bound by receptor: pH 7.0, from speciation diagrams of potentiometric data (FIG. 4); for affinity towards inorganic phosphate (log K), range over protonation states: summary of Table 2; for Binding constant (Log K) H2L2+ + HA2− ⇄ H3LA / Binding constant (Log K) H4L4+ + H2A− ⇄ H6LA3+ / Protonation and binding constant (Log K) 3H+ + L + A3− ⇄ H3LA / Protonation and binding constant (Log K) 6H+ + L + A3− ⇄ H6LA3+: dash = equilibrium does not occur significantly. As to the method:
as §1, §2

Data set [4] is described as follows: Fluorimetric titrations: quenching of fluorescent phosphate derivative 13. Particulars: 1:1 binding model; 0.1 M TRIS buffer pH 7.0; 13 at 5.0×10^−6 M. Here is the method:
Titrations were performed on a Spex Fluoromax-II instrument at 25° C. in a 0.1 M TRIS buffer of pH 7.0, using an excitation wavelength of 324 nm.
Upon titration of our receptors to a solution of this probe in buffered water (0.1 M Tris, pH 7.0) the emission of compound 13 was quenched indicating binding (FIG. 3).
This is related to the trans configuration of the oligoamines around the conformationally restricted scaffold in compound 1 preventing the oligoamines from cooperating.

Turning to `NCCN` [1,2-diaminoethane], in data set [1], the “first protonation pKa” value is 10.1 and the “second protonation pKa” value was 7.0.
Regarding `NCCCN` [1,3-diaminopropane], in data set [1], the “first protonation pKa” value is given as 10.6 and the “second protonation pKa” value is 8.6.
`NCCCCN` [1,4-diaminobutane]: the “second protonation pKa” value in data set [1] was 9.4.
Consider `CN(CCCN)CCCNC(=O)/C=C/C(=O)NCCCN(C)CCCN` [Compound 1], for which, in data set [2], the “Protonation constant (log K) 2H+ + L ⇄ H2L2+” value was found to be 20.05, the “Protonation constant (log K) 3H+ + L ⇄ H3L3+” value came to 28.42, the “Protonation constant (log K) 4H+ + L ⇄ H4L4+” value is on record as 35.50 and the “Protonation constant (log K) H+ + L ⇄ HL+” value is given as 10.45. For the same molecule, in data set [2], the “Protonation constant (log K) H+ + H2L2+ ⇄ H3L3+” value is given as 8.37, the “Protonation constant (log K) H+ + H3L3+ ⇄ H4L4+” value worked out at 7.08 and the “Protonation constant (log K) H+ + HL+ ⇄ H2L2+” value is reported as 9.60. Further, in data set [3], the “Binding constant (Log K) H3L3+ + HA2− ⇄ H4LA+” value was 2.90; the “Binding constant (Log K) H4L4+ + HA2− ⇄ H5LA2+” value worked out at 3.39; the “Protonation and binding constant (Log K) 4H+ + L + A3− ⇄ H4LA+” value was determined as 42.87; the “Protonation and binding constant (Log K) 5H+ + L + A3− ⇄ H5LA2+” value was determined as 50.44. In addition, in data set [3], the “phosphate in solution bound by receptor” value worked out at 31% and the “affinity towards inorganic phosphate (log K), range over protonation states” value is on record as 2.9-3.4. In addition, the “binding constant (log K) for fluorescent phosphate derivative 13” value in data set [4] is “no significant binding occurs”.
For the molecule `CN(CCCN)CCCNC(=O)/C=C\C(=O)NCCCN(C)CCCN` [Compound 2], in data set [2], the “Protonation constant (log K) 2H+ + L ⇄ H2L2+” value is reported as 19.06, the “Protonation constant (log K) 3H+ + L ⇄ H3L3+” value is given as 26.52, the “Protonation constant (log K) 4H+ + L ⇄ H4L4+” value is 30.27 and the “Protonation constant (log K) H+ + L ⇄ HL+” value was determined as 10.04. Besides, in data set [2], the “Protonation constant (log K) H+ + H2L2+ ⇄ H3L3+” value is recorded as 7.46, the “Protonation constant (log K) H+ + H3L3+ ⇄ H4L4+” value was found to be 3.75 and the “Protonation constant (log K) H+ + HL+ ⇄ H2L2+” value is 9.02. For the same molecule, in data set [3], the “Binding constant (Log K) H3L3+ + HA2− ⇄ H4LA+” value is recorded as 5.27, the “Binding constant (Log K) H4L4+ + HA2− ⇄ H5LA2+” value came to 8.55, the “Binding constant (Log K) H2L2+ + HA2− ⇄ H3LA” value is 4.40 and the “Binding constant (Log K) H4L4+ + H2A− ⇄ H6LA3+” value is 7.67. Also, in data set [3], the “Protonation and binding constant (Log K) 4H+ + L + A3− ⇄ H4LA+” value is given as 43.27 (7); the “Protonation and binding constant (Log K) 5H+ + L + A3− ⇄ H5LA2+” value is reported as 50.30 (7); the “Protonation and binding constant (Log K) 3H+ + L + A3− ⇄ H3LA” value is recorded as 34.94 (4); the “Protonation and binding constant (Log K) 6H+ + L + A3− ⇄ H6LA3+” value is reported as 56.33 (9). Further, in data set [3], the “phosphate in solution bound by receptor” value is 95% and the “affinity towards inorganic phosphate (log K), range over protonation states” value is listed as 4.4-8.6. Besides, the “binding constant (log K) for fluorescent phosphate derivative 13” value in data set [4] is recorded as 5.15.
As to `CN1CCCNCc2cccc(c2)CNCCCN(C)CCCNC(=O)/C=C\C(=O)NCCC1` [Compound 3], in data set [2], the “Protonation constant (log K) 2H+ + L ⇄ H2L2+” value came out at 18.82, the “Protonation constant (log K) 3H+ + L ⇄ H3L3+” value is given as 25.14, the “Protonation constant (log K) 4H+ + L ⇄ H4L4+” value came to 28.11 and the “Protonation constant (log K) H+ + L ⇄ HL+” value is 10.32. For the same molecule, in data set [2], the “Protonation constant (log K) H+ + H2L2+ ⇄ H3L3+” value came to 6.32, the “Protonation constant (log K) H+ + H3L3+ ⇄ H4L4+” value came out at 2.97 and the “Protonation constant (log K) H+ + HL+ ⇄ H2L2+” value was found to be 8.50. Further, in data set [3], the “Binding constant (Log K) H3L3+ + HA2− ⇄ H4LA+” value came to 10.24; the “Binding constant (Log K) H2L2+ + HA2− ⇄ H3LA” value is reported as 7.53; the “Binding constant (Log K) H4L4+ + H2A− ⇄ H6LA3+” value turned out to be 10.90; the “Protonation and binding constant (Log K) 4H+ + L + A3− ⇄ H4LA+” value is reported as 46.85 (4). Besides, in data set [3], the “Protonation and binding constant (Log K) 5H+ + L + A3− ⇄ H5LA2+” value was 53.76 (5); the “Protonation and binding constant (Log K) 3H+ + L + A3− ⇄ H3LA” value is given as 37.83 (4); the “Protonation and binding constant (Log K) 6H+ + L + A3− ⇄ H6LA3+” value was 57.40 (5). In addition, in data set [4], the “binding constant (log K) for fluorescent phosphate derivative 13” value came out at 5.30.
As for `NCCCNCCCCNCCCN` [Compound 4, spermine, reference compound], in data set [2], the “Protonation constant (log K) 2H+ + L ⇄ H2L2+” value is on record as 20.63, the “Protonation constant (log K) 3H+ + L ⇄ H3L3+” value is given as 29.50, the “Protonation constant (log K) 4H+ + L ⇄ H4L4+” value was found to be 37.58 and the “Protonation constant (log K) H+ + L ⇄ HL+” value was found to be 10.64. Moreover, in data set [2], the “Protonation constant (log K) H+ + H2L2+ ⇄ H3L3+” value amounted to 8.87, the “Protonation constant (log K) H+ + H3L3+ ⇄ H4L4+” value was found to be 8.08 and the “Protonation constant (log K) H+ + HL+ ⇄ H2L2+” value turned out to be 9.99.
`CN(CCCN)CCCNC(=O)[C@@H]1C2C=CC(C2)[C@H]1C(=O)NCCCN(C)CCCN` [Compound 14]: in data set [2], the “Protonation constant (log K) 2H+ + L ⇄ H2L2+” value was determined as 18.49, the “Protonation constant (log K) 3H+ + L ⇄ H3L3+” value worked out at 25.67, the “Protonation constant (log K) 4H+ + L ⇄ H4L4+” value came to 27.91 and the “Protonation constant (log K) H+ + L ⇄ HL+” value came out at 9.76. In data set [2], the “Protonation constant (log K) H+ + H2L2+ ⇄ H3L3+” value was determined as 7.18, the “Protonation constant (log K) H+ + H3L3+ ⇄ H4L4+” value came out at 2.24 and the “Protonation constant (log K) H+ + HL+ ⇄ H2L2+” value came to 8.73. Besides, in data set [3], the “Binding constant (Log K) H3L3+ + HA2− ⇄ H4LA+” value worked out at 5.52, the “Binding constant (Log K) H4L4+ + HA2− ⇄ H5LA2+” value is on record as 10.70, the “Binding constant (Log K) H2L2+ + HA2− ⇄ H3LA” value is 4.37 and the “Binding constant (Log K) H4L4+ + H2A− ⇄ H6LA3+” value is listed as 10.17. In data set [3], the “Protonation and binding constant (Log K) 4H+ + L + A3− ⇄ H4LA+” value is 42.67 (3); the “Protonation and binding constant (Log K) 5H+ + L + A3− ⇄ H5LA2+” value is reported as 50.09 (3); the “Protonation and binding constant (Log K) 3H+ + L + A3− ⇄ H3LA” value was 34.34 (3); the “Protonation and binding constant (Log K) 6H+ + L + A3− ⇄ H6LA3+” value is reported as 56.47 (3). Besides, the “phosphate in solution bound by receptor” value in data set [3] is on record as 95%.
